Assay results taken from patent US20160137639A1, “TRIAZOLE-ISOXAZOLE COMPOUND AND MEDICAL USE THEREOF” (JAPAN TOBACCO INC., priority 2012, published 2016).

target: T1, human RORγ (Homo sapiens, UniProt P51449); experiment: Luciferase reporter gene assay of inhibitory effect against RORγ transcriptional activity (GAL4-hRORγ plasmid in CHO cells); type: cell-based; settings: read-out: LUC EC50 (μM) hRORg
T1 construct: human, NM_005060.3 and from Ser253 to Lys518; expressed in transfected cells; host or cells: CHO cells (transient co-transfection with pG5-Luc reporter)
T1 sequence (P51449 253-518): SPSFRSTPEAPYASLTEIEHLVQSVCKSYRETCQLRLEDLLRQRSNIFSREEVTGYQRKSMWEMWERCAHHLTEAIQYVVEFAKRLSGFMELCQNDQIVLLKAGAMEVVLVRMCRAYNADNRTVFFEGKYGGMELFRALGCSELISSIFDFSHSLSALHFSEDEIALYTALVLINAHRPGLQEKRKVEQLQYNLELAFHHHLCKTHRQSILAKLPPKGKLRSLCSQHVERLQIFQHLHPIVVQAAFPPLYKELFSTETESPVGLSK
Protocol: (§1) In vitro assay of inhibitory effect against RORγ transcriptional activity
(§2) Inhibitory effect of test article on transcriptional activity of RORγ was measured by means of the following luciferase reporter gene assay.
(§3) A cDNA encoding human and mouse RORγ ligand binding domain (LBD) were obtained based on the reported sequences (Genebank accession number and sequence: human, NM_005060.3 and from Ser253 to Lys518; mouse, NM_011281.2 and from Ile251 to Lys516).
(§4) The cDNA of human RORγ or mouse RORγ was inserted into pFA-CMV vector (Strategene), which expresses GAL4-DNA binding domain fusion protein.
(§5) The resulting plasmids are hereinafter referred to as GAL4-hRORγ plasmid and GAL4-mRORγ plasmid, respectively.
(§6) Human or mouse GAL4-RORγ plasmid was transiently co-transfected into Chinese hamster ovary cells (CHO cells) with […] plasmid, a reporter plasmid expressing firefly luciferase depending on GAL4.
(§7) TransIT CHO transfection reagent (Mirus) was used to co-transfect human or mouse GAL4-RORγ plasmid into CHO cells with pG5-Luc plasmid.
(§8) One day before the assay, CHO cells were suspended in HAM F-12 Nutrient medium containing 10 v/v % fetal bovine serum and seeded at 6×10^6 cells per 175 cm^2 cell culture flask.
(§9) Fifty four micro litters of Transit-CHO reagent was added into a 15 ml tube containing 1.16 ml of HAM F-12 Nutrient medium without fetal bovine serum and incubated at room temperature for 10 min.
A total 36 uL plasmid solution containing the GAL4-hRORγ plasmid (400 ng), pG5-Luc plasmid (9000 ng) and pcDNA3 plasmid (8600 ng) were added into the tube and mixed gently.
(§10) The mixture was incubated at room temperature for 10 min.
(§11) Nine micro litters of CHO Mojo Reagent was then added into each tube and mixed gently. The mixture was incubated at room temperature for 10 min.
(§12) The resultant transfection reagent was applied to the cell culture.
(§13) After incubation at 37° C., 5% CO2 for 4 hr, the transfected CHO cells were harvested by a trypsin treatment.
(§14) The collected cells were resuspended in HAM F-12 Nutrient medium supplemented with 10 v/v % fetal bovine serum and plated into a 384-well-white plate at 8,000 cells/50 uL/well.
(§15) The plate was incubated at room temperature for 1 hour and then further incubated at 37° C., 5% CO2 for 3 hours.
(§16) The test articles were dissolved in dimethylsulfoxide (DMSO) to obtain a concentration of 10 mmol/L. The resulting solution was diluted with the medium just before use and added to the cells in the plate to prepare 8 different concentrations of the test article.
(§17) The final concentration of DMSO was 0.1 v/v % After the addition of the test articles, the cells were incubated at 37° C., 5% CO2 for 2 days.
(§18) RORγ transcriptional activity was detected as the intracellular luciferase activity using SteadyLite HTS Reporter Gene Assay System (Perkin Elmer).
(§19) StedyLite Reagent was diluted five-fold into a solution containing 10 mM Tricine, 0.2% w/v BSA, 0.02% v/v Tween-20 to obtain the luciferase substrate solution.
(§20) After the measurement of the cell viability using Resazurin, the culture media in the 384 well-plate were removed. Then the Luc substrate solution was added into each well.
(§21) After the incubation at room temperature for 10 minutes, luminescence of each well was measured by a microplate reader.
(§22) The luciferase activity derived from the luminescence count in the vehicle-control well treated with 0.1% DMSO alone was defined as 100%, and the luciferase activity in the test article was calculated as a percentage (%-of-control) based on the value of the vehicle-control.
(§23) EC50 value of test article was calculated by curve fitting with GraphPad Prism.
(§24) The luminescence counts at the concentration of the test article where the cytotoxicity was observed were excluded from the data analysis.

SMILES | EC50 [µM]
Cc1c(Cl)cccc1CNC(=O)CCc1nnc(CCC(C)C)n1C1CC1 [Example F-123] | > 3
Cc1c(Cl)cccc1NC(=O)CCc1nnc(CC[C@H]2CC[C@H](C(=O)N(C)C)CC2)n1C1CC1 [Example F-258] | > 3
COc1cc(C)ccc1CNC(=O)[C@H]1CN(C(C)=O)C[C@@H]1c1nnc(CCC2CCCCC2)n1C1CC1 (racemic) [Example F-173] | < 3
CC(=O)N1C[C@@H](C(=O)Nc2ccc(C)cc2C)[C@H](c2nnc(CCCC(C)(C)C)n2C2CC2)C1 [Example F-339] | > 3

same assay, conditions: read-out: LUC EC50 hRORg

SMILES | EC50 [µM]
CC(=O)N1C[C@H](C(=O)Nc2ccc(F)cc2C)[C@@H](c2nnc([C@H]3C[C@@H](CC(C)C)C3)n2C2CC2)C1 [Example F-600] | < 3
CC(C)(C[C@H]1C[C@@H](c2onc([C@@H](CCC(=O)O)CC(=O)Nc3ccc(CO)cc3Cl)c2C2CC2)C1)C(=O)O [Example F-739] | > 3
CC(C)Cc1cc(-c2nnc([C@H](CC(=O)Nc3cccc4c3OC(F)(F)O4)OC(C)C)n2C2CC2)no1 [Example F-584] | > 3
Cc1ccc(NC(=O)C[C@H](CNC(=O)CC#N)c2noc([C@H]3C[C@@H](CC(C)C)C3)c2C2CC2)c(C)c1 [Example F-647] | < 3
Cc1ccc(NC(=O)C[C@H](CCC(=O)O)c2nnc([C@H]3C[C@@H](CC(C)(C)C(C)C)C3)n2C2CC2)c(Cl)c1 [Example F-708] | < 3
Cc1ccc(NC(=O)C[C@H](CCO)c2nnc([C@H]3C[C@@H](CC(C)(C)C)C3)n2C2CC2)c(C)c1 [Example F-561] | < 3
Cc1ccc(NC(=O)C[C@H](CCO)c2nnc(-c3cc(CC(C)(C)C)on3)n2C2CC2)c(C)c1 [Example F-612] | < 3
Cc1ccc(NC(=O)C[C@@H](CCCO)c2nnc([C@H]3C[C@@H](CC(C)C)C3)n2C2CC2)c(C)c1 [Example F-510] | > 3
COC1C[C@@H](C(=O)Nc2ccc(C)cc2C)[C@H](c2nnc([C@H]3C[C@@H](CC(C)C)C3)n2C2CC2)C1 (single isomer, unassigned) [Example F-555] | > 3
Cc1ccc(NC(=O)C[C@H](Cc2noc(=O)[nH]2)c2noc([C@H]3C[C@@H](CC(C)C)C3)c2C2CC2)c(C)c1 [Example F-640] | < 3
Cc1ccc(NC(=O)[C@H]2CN(S(=O)(=O)C(F)(F)F)C[C@@H]2c2nnc([C@H]3C[C@@H](CC(C)(C)C)C3)n2C2CC2)c(C)c1 [Example F-542] | < 3
Cc1ccc(NC(=O)CC(CN2C(=O)N(C)C(C)(C)C2=O)c2nnc(CCCC(C)(C)C)n2C2CC2)c(C)c1 (racemic) [Example F-508] | > 3
Cc1ccc(NC(=O)[C@H]2CN(C(=O)CN(C)C)C[C@@H]2c2nnc([C@H]3C[C@@H](CC(C)(C)C)C3)n2C2CC2)c(C)c1 [Example F-648] | < 3
CC(C)(C[C@H]1C[C@@H](c2onc(C(CCC(=O)O)CC(=O)Nc3ccc(C(=O)O)cc3Cl)c2C2CC2)C1)C(=O)O (some centres unmarked) [Example F-746] | > 3
Cc1ccc(NC(=O)C[C@H](OCC(F)(F)F)c2nnc([C@H]3C[C@@H](CC(C)C)C3)n2C2CC2)c(C)c1 [Example F-609] | < 3

target: T2, mouse RORγ (Mus musculus, UniProt P51450); experiment: Luciferase reporter gene assay of inhibitory effect against RORγ transcriptional activity (GAL4-mRORγ plasmid in CHO cells); type: cell-based; settings: read-out: LUC EC50 (μM) mRORg
T2 construct: mouse, NM_011281.2 and from Ile251 to Lys516; expressed in transfected cells; host or cells: CHO cells (transient co-transfection with pG5-Luc reporter)
T2 sequence (P51450 251-516): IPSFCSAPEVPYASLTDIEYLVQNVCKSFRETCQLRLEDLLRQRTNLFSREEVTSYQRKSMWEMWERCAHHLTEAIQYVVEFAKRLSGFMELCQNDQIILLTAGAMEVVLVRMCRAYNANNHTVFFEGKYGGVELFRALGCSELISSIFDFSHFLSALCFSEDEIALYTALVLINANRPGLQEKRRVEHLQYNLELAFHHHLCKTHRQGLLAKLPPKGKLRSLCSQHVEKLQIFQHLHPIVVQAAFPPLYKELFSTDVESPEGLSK
Protocol: as §1, §2, §3, §4, §5, §6, §7, §8, §9, §10, §11, §12, §13, §14, §15, §16, §17, §18, §19, §20, §21, §22, §23, §24

SMILES | EC50 [µM]
Cc1c(Cl)cccc1CNC(=O)CCc1nnc(CCC(C)C)n1C1CC1 [Example F-123] | > 3
Cc1c(Cl)cccc1NC(=O)CCc1nnc(CC[C@H]2CC[C@H](C(=O)N(C)C)CC2)n1C1CC1 [Example F-258] | > 3
COc1cc(C)ccc1CNC(=O)[C@H]1CN(C(C)=O)C[C@@H]1c1nnc(CCC2CCCCC2)n1C1CC1 (racemic) [Example F-173] | < 3
CC(=O)N1C[C@@H](C(=O)Nc2ccc(C)cc2C)[C@H](c2nnc(CCCC(C)(C)C)n2C2CC2)C1 [Example F-339] | > 3

same assay, conditions: read-out: LUC EC50 mRORg

SMILES | EC50 [µM]
CC(=O)N1C[C@H](C(=O)Nc2ccc(F)cc2C)[C@@H](c2nnc([C@H]3C[C@@H](CC(C)C)C3)n2C2CC2)C1 [Example F-600] | < 3
CC(C)(C[C@H]1C[C@@H](c2onc([C@@H](CCC(=O)O)CC(=O)Nc3ccc(CO)cc3Cl)c2C2CC2)C1)C(=O)O [Example F-739] | > 3
CC(C)Cc1cc(-c2nnc([C@H](CC(=O)Nc3cccc4c3OC(F)(F)O4)OC(C)C)n2C2CC2)no1 [Example F-584] | < 3
Cc1ccc(NC(=O)C[C@H](CNC(=O)CC#N)c2noc([C@H]3C[C@@H](CC(C)C)C3)c2C2CC2)c(C)c1 [Example F-647] | < 3
Cc1ccc(NC(=O)C[C@H](CCC(=O)O)c2nnc([C@H]3C[C@@H](CC(C)(C)C(C)C)C3)n2C2CC2)c(Cl)c1 [Example F-708] | < 3
Cc1ccc(NC(=O)C[C@H](CCO)c2nnc([C@H]3C[C@@H](CC(C)(C)C)C3)n2C2CC2)c(C)c1 [Example F-561] | < 3
Cc1ccc(NC(=O)C[C@H](CCO)c2nnc(-c3cc(CC(C)(C)C)on3)n2C2CC2)c(C)c1 [Example F-612] | < 3
Cc1ccc(NC(=O)C[C@@H](CCCO)c2nnc([C@H]3C[C@@H](CC(C)C)C3)n2C2CC2)c(C)c1 [Example F-510] | > 3
COC1C[C@@H](C(=O)Nc2ccc(C)cc2C)[C@H](c2nnc([C@H]3C[C@@H](CC(C)C)C3)n2C2CC2)C1 (single isomer, unassigned) [Example F-555] | > 3
Cc1ccc(NC(=O)C[C@H](Cc2noc(=O)[nH]2)c2noc([C@H]3C[C@@H](CC(C)C)C3)c2C2CC2)c(C)c1 [Example F-640] | < 3
Cc1ccc(NC(=O)[C@H]2CN(S(=O)(=O)C(F)(F)F)C[C@@H]2c2nnc([C@H]3C[C@@H](CC(C)(C)C)C3)n2C2CC2)c(C)c1 [Example F-542] | < 3
Cc1ccc(NC(=O)CC(CN2C(=O)N(C)C(C)(C)C2=O)c2nnc(CCCC(C)(C)C)n2C2CC2)c(C)c1 (racemic) [Example F-508] | > 3
Cc1ccc(NC(=O)[C@H]2CN(C(=O)CN(C)C)C[C@@H]2c2nnc([C@H]3C[C@@H](CC(C)(C)C)C3)n2C2CC2)c(C)c1 [Example F-648] | < 3
CC(C)(C[C@H]1C[C@@H](c2onc(C(CCC(=O)O)CC(=O)Nc3ccc(C(=O)O)cc3Cl)c2C2CC2)C1)C(=O)O (some centres unmarked) [Example F-746] | > 3
Cc1ccc(NC(=O)C[C@H](OCC(F)(F)F)c2nnc([C@H]3C[C@@H](CC(C)C)C3)n2C2CC2)c(C)c1 [Example F-609] | < 3
